The values below come from patent publication US10807970B2 (priority 2016, dated 2020).

Read-outs that look alike come from different tables or passages of the source. Where only a bound is given, the exact number is not on record here.

This assay addresses human σ1 receptor (Homo sapiens, UniProt Q99720). The assay is described as follows: Human σ1 receptor radioligand assay ([3H](+)-pentazocine, transfected HEK-293 membranes). The class given is binding. The arrangement: μ and σ1 dual binding: key to the marks not given beside the values. Particulars: one class symbol for both Ki-σ1 (human σ1 receptor, A1) and Ki-μ (human μ-opioid receptor, A2). In short, it runs like this: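 Membranes from HEK-293 cells transfected with human σ1 receptor (7 μg) incubated with 5 nM [3H](+)-pentazocine in 50 mM Tris-HCl pH 8, 120 min at 37° C. Non-specific binding defined with 10 μM haloperidol. Bound radioligand separated by filtration, washed with ice-cold 10 mM Tris-HCl pH 7.4, and counted by scintillation.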

The mark [1] stands for this setting: read-out: μ and σ1 dual binding.

human σ1 receptor, sequence (Q99720 whole entry): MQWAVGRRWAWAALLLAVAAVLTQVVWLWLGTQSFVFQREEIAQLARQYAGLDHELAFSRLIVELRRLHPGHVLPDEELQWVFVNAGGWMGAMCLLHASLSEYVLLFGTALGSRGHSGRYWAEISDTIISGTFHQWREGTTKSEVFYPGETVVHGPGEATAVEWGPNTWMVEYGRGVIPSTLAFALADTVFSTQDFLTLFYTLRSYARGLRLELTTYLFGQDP

Regarding `c1ccc(CN2CCN(C3(c4ccccc4)CCOC4(CCCC4)C3)CC2)cc1` (stereo not shown) [Example 32, 1-benzyl-4-(9-phenyl-6-oxaspiro[4.5]decan-9-yl)piperazine], the Ki (μ and σ1 dual binding) is less than 100 nM.

Consider `CCOCCCN1CCC(C2(C(=O)c3ccccn3)CCOC(C)(C)C2)CC1` (stereo not shown) [Example 103], for which the Ki under setting [1] is more than 500 nM.

Turning to `CCC1(C2CCN(CCc3ccccc3)CC2)CCOC(C)(C)C1` (stereo not shown) [Example 173, 4-(4-ethyl-2,2-dimethyltetrahydro-2H-pyran-4-yl)-1-phenethylpiperidine], the “μ and σ1 dual binding” value was “++”.

In the case of `CC1(C)CC(C(=O)c2ccccn2)(N2CCN(Cc3ccccn3)CC2)CCO1` (stereo not shown) [Example 50, (2,2-dimethyl-4-(4-(pyridin-2-ylmethyl)piperazin-1-yl)tetrahydro-2H-pyran-4-yl)(pyridin-2-yl)methanone], the “μ and σ1 dual binding” value is listed as “++”.

For the molecule `COCCN1CCN(C2(C(=O)c3ccccn3)CCOC(C)(C)C2)CC1` (stereo not shown) [Example 68, (4-(4-(2-methoxyethyl)piperazin-1-yl)-2,2-dimethyltetrahydro-2H-pyran-4-yl)(pyridin-2-yl)methanone], the Ki under setting [1] is more than 500 nM.

Turning to `CC(C)OCCN1CCN(C2(C(=O)c3ccccn3)CCOC(C)(C)C2)CC1` (stereo not shown) [Example 65, (4-(4-(2-isopropoxyethyl)piperazin-1-yl)-2,2-dimethyltetrahydro-2H-pyran-4-yl)(pyridin-2-yl)methanone], the Ki under setting [1] is less than 500 nM.

In turn, `COCCC1(N2CCN(CCc3ccccc3)CC2)CCOC(C)(C)C1` (stereo not shown) [Example 49, 1-(4-(2-Methoxyethyl)-2,2-dimethyltetrahydro-2H-pyran-4-yl)-4-phenethylpiperazine] showed a Ki (μ and σ1 dual binding) of less than 500 nM.

`N#Cc1ccc(CN2CCN(C3(C4CC4)CCOCC3)CC2)cc1` [Example 191, 4-((4-(4-cyclopropyltetrahydro-2H-pyran-4-yl)piperazin-1-yl)methyl)benzonitrile]: the Ki under setting [1] is more than 500 nM.

Regarding `CC(C)C1(N2CCN(CCc3cccc(F)c3F)CC2)CCOC(C)(C)C1` (stereo not shown) [Example 101, 1-(2,3-difluorophenethyl)-4-(4-isopropyl-2,2-dimethyltetrahydro-2H-pyran-4-yl)piperazine], the “μ and σ1 dual binding” value is “++”.

For the molecule `CC1(C)CC(C(=O)c2ccccn2)(N2CCN(Cc3ccccc3)CC2)CCO1` (stereo not shown) [Example 1, (4-(4-benzylpiperazin-1-yl)-2,2-dimethyltetrahydro-2H-pyran-4-yl)(pyridin-2-yl)methanone], the Ki (μ and σ1 dual binding) is less than 100 nM.

Regarding `CC(C)OCCN1CCN([C@]2(C(=O)c3ccccn3)CCOC2)CC1` [Example 242, (R)-(3-(4-(2-isopropoxyethyl)piperazin-1-yl)tetrahydrofuran-3-yl)(pyridin-2-yl)methanone], the “μ and σ1 dual binding” value is “++”.

Turning to `CC(C)OCCN1CCN(C2(C)CCOC(C)(C)C2)CC1` (stereo not shown) [Example 37, 1-(2-isopropoxyethyl)-4-(2,2,4-trimethyltetrahydro-2H-pyran-4-yl)piperazine], the “μ and σ1 dual binding” value was “++”.

Take `CC(C)OCCN1CCN(C2(C(=O)c3ccccn3)CCOCC2)CC1` [Example 185, (4-(4-(2-isopropoxyethyl)piperazin-1-yl)tetrahydro-2H-pyran-4-yl)(pyridin-2-yl)methanone]: the “μ and σ1 dual binding” value was “++”.

For the molecule `C=C(C)CCN1CCN(C2(C(=O)c3ccccn3)CCOC(C)(C)C2)CC1` (stereo not shown) [Example 118, (2,2-Dimethyl-4-(4-(3-methylbut-3-enyl)piperazin-1-yl)tetrahydro-2H-pyran-4-yl)(pyridin-2-yl)methanone], for the setting “μ and σ1 dual binding”, the Ki is less than 500 nM.

The molecule `CC1(C)CC(c2ccccc2)(N2CCN(Cc3ccccc3)CC2)CCO1` (stereo not shown) [Example 35, 1-benzyl-4-(2,2-dimethyl-4-phenyltetrahydro-2H-pyran-4-yl)piperazine] yielded a Ki (μ and σ1 dual binding) of less than 500 nM.

For the molecule `CC1(C)CC(C(=O)c2cccc(C(F)(F)F)n2)(N2CCN(Cc3ccccc3)CC2)CCO1` (stereo not shown) [Example 15, (4-(4-benzylpiperazin-1-yl)-2,2-dimethyltetrahydro-2H-pyran-4-yl)(6-(trifluoromethyl)pyridin-2-yl)methanone], the Ki (μ and σ1 dual binding) was less than 100 nM.

Take `CCC1(N2CCN(CCc3ccncc3F)CC2)CCOC(C)(C)C1` (stereo not shown) [Example 84, 1-(4-ethyl-2,2-dimethyltetrahydro-2H-pyran-4-yl)-4-(2-(3-fluoropyridin-4-yl)ethyl)piperazine]: the “μ and σ1 dual binding” value is on record as “++”.

As to `CC(C)CCN1CCN([C@]2(C(=O)c3ccccn3)CCOC(C)(C)C2)CC1` [Example 133, (R)-(4-(4-isopentylpiperazin-1-yl)-2,2-dimethyltetrahydro-2H-pyran-4-yl)(pyridin-2-yl)methanone], the Ki (μ and σ1 dual binding) is less than 100 nM.

Consider `CCC1(N2CCN(CCOC(C)C)CC2)CCOCC1` [Example 176, 1-(4-ethyltetrahydro-2H-pyran-4-yl)-4-(2-isopropoxyethyl)piperazine], for which the “μ and σ1 dual binding” value is listed as “++”.

For `CC1(C)CC(C(=O)c2ccccn2)(N2CCN(Cc3ccccc3)CC2)CC(C)(C)O1` [Example 17, (4-(4-benzylpiperazin-1-yl)-2,2,6,6-tetramethyltetrahydro-2H-pyran-4-yl)(pyridin-2-yl)methanone], the “μ and σ1 dual binding” value is given as “++”.

As for `CCC1(N2CCN(CCc3ccncc3)CC2)CCOC(C)(C)C1` (stereo not shown) [Example 82, 1-(4-ethyl-2,2-dimethyltetrahydro-2H-pyran-4-yl)-4-(2-(pyridin-4-yl)ethyl)piperazine], the “μ and σ1 dual binding” value is given as “++”.

As to `C[C@@H]1C[C@](C(=O)c2ccccn2)(N2CCN(CCc3ccccc3)CC2)CCO1` [Example 240, ((2R,4R)-2-methyl-4-(4-phenethylpiperazin-1-yl)tetrahydro-2H-pyran-4-yl)(pyridin-2-yl)methanone], the “μ and σ1 dual binding” value is listed as “++”.

On to `CC(C)CN1CCC(C2(c3ccccn3)CCOC(C)(C)C2)CC1` (stereo not shown) [Example 126, 2-(4-(1-isobutylpiperidin-4-yl)-2,2-dimethyltetrahydro-2H-pyran-4-yl)pyridine], for which the Ki (μ and σ1 dual binding) is more than 500 nM.

As to `CC1(C)CC(C(=O)c2ccccn2)(N2CCN(CCC3CC3)CC2)CCO1` (stereo not shown) [Example 128, (4-(4-(2-cyclopropylethyl)piperazin-1-yl)-2,2-dimethyltetrahydro-2H-pyran-4-yl)(pyridin-2-yl)methanone], for the setting “μ and σ1 dual binding”, the Ki is less than 500 nM.

`CC(C)CCN1CCN([C@]2(C(=O)c3ccccn3)CCO[C@@H](C)C2)CC1` [Example 169]: the Ki under setting [1] was less than 500 nM.

Regarding `CC(C)CCN1CCC([C@@]2(C(=O)c3ccccn3)CCO[C@@H](C)C2)CC1` [Example 171], the “μ and σ1 dual binding” value is listed as “++”.

For the molecule `C[C@H]1C[C@](C(=O)c2ccccn2)(N2CCN(Cc3ccccc3)CC2)CCO1` [Example 27], under setting [1], the Ki is less than 500 nM.

As for `COc1ccc(CN2CCN(C3(C(=O)c4ccccn4)CCOCC3)CC2)cc1F` [Example 196, (4-(4-(3-fluoro-4-methoxybenzyl)piperazin-1-yl)tetrahydro-2H-pyran-4-yl)(pyridin-2-yl)methanone], the Ki under setting [1] was more than 500 nM.

For the molecule `CC1(C)CC(c2ccccn2)(C2CCN(Cc3ccccc3)CC2)CCO1` (stereo not shown) [Example 125, 2-(4-(1-benzylpiperidin-4-yl)-2,2-dimethyltetrahydro-2H-pyran-4-yl)pyridine], the Ki (μ and σ1 dual binding) was more than 500 nM.

Turning to `CC(C)CN1CCN(C2(C(=O)c3ccccc3)CCOC(C)(C)C2)CC1` (stereo not shown) [Example 11, (4-(4-isobutylpiperazin-1-yl)-2,2-dimethyltetrahydro-2H-pyran-4-yl)(phenyl)methanone], the “μ and σ1 dual binding” value is reported as “++”.

Take `CC(C)CCN1CCN([C@]2(C)CCO[C@@H](C)C2)CC1` [Example 162, 1-((2S,4R)-2,4-dimethyltetrahydro-2H-pyran-4-yl)-4-isopentylpiperazine]: the “μ and σ1 dual binding” value was “++”.

On to `CC1(C)CC(CCO)(N2CCN(CCc3ccccc3)CC2)CCO1` (stereo not shown) [Example 48, 2-(2,2-dimethyl-4-(4-phenethylpiperazin-1-yl)tetrahydro-2H-pyran-4-yl)ethanol], for which the Ki under setting [1] is more than 500 nM.

With `CC(C)CCN(C)[C@@H]1CCN([C@@]2(C(=O)c3ccccn3)CCOC(C)(C)C2)C1` [Example 148, ((S)-4-((R)-3-(isopentyl(methyl)amino)pyrrolidin-1-yl)-2,2-dimethyltetrahydro-2H-pyran-4-yl)(pyridin-2-yl)methanone], the Ki (μ and σ1 dual binding) is less than 500 nM.

Under “μ and σ1 dual binding”, `CCC1(N2CCN(CCc3cc(F)ccc3F)CC2)CCOC(C)(C)C1` (stereo not shown) [Example 99, 1-(2,5-difluorophenethyl)-4-(4-ethyl-2,2-dimethyltetrahydro-2H-pyran-4-yl)piperazine] had a Ki of less than 500 nM.

In the case of `CC(C)C1(N2CCN(CCc3cccc(F)c3)CC2)CCOC(C)(C)C1` (stereo not shown) [Example 91, 1-(3-fluorophenethyl)-4-(4-isopropyl-2,2-dimethyltetrahydro-2H-pyran-4-yl)piperazine], the Ki (μ and σ1 dual binding) was less than 500 nM.

For the setting “μ and σ1 dual binding”, `CC(C)C1(N2CCN(CCc3cc(F)ccc3F)CC2)CCOC(C)(C)C1` (stereo not shown) [Example 92, 1-(2,5-difluorophenethyl)-4-(4-isopropyl-2,2-dimethyltetrahydro-2H-pyran-4-yl)piperazine] had a Ki of less than 500 nM.

In the case of `c1ccc(CC2(N3CCN(Cc4cccnc4)CC3)CCOC3(CCCC3)C2)cc1` (stereo not shown) [Example 122, 1-(9-benzyl-6-oxaspiro[4.5]decan-9-yl)-4-(pyridin-3-ylmethyl)piperazine], where the note is “μ and σ1 dual binding”, the Ki was less than 500 nM.

As to `CN(Cc1ccccc1)[C@@H]1CCN([C@@]2(C(=O)c3ccccn3)CCOC(C)(C)C2)C1` [Example 143], the “μ and σ1 dual binding” value was “++”.

Consider `CC(C)CN1CCN(C2(Cc3ccccc3)CCOC3(CCCC3)C2)CC1` (stereo not shown) [Example 123, 1-(9-benzyl-6-oxaspiro[4.5]decan-9-yl)-4-isobutylpiperazine], for which the “μ and σ1 dual binding” value was “++”.

On to `c1ccc(C2(N3CCN(Cc4cccnc4)CC3)CCOC3(CCCC3)C2)cc1` (stereo not shown) [Example 119, 1-(9-phenyl-6-oxaspiro[4.5]decan-9-yl)-4-(pyridin-3-ylmethyl)piperazine], for which the “μ and σ1 dual binding” value was “++”.
